Literature values in patent US20060100214A1, “Fast dissolving and taste masked oral dosage form comprising sildenafil” (priority 2002, published 2006).

CCCc1nn(C)c2c(=O)[nH]c(-c3cc(S(=O)(=O)N4CCN(C)CC4)ccc3OCC)nc12.O=C(O)CC(O)(CC(=O)O)C(=O)O [Sildenafil citrate, 1-[[3-(6,7-dihydro-1-methyl-7-oxo-3-propyl-1H-pyrazolo[4,3-d]pyrimidin-5-yl)-4-ethoxyphenyl]sulfonyl]-4-methylpiperazine citrate]
maximal solubility (at pH2.0): approximately 24 mg/ml

CCCc1nn(C)c2c(=O)[nH]c(-c3cc(S(=O)(=O)N4CCN(C)CC4)ccc3OCC)nc12 [sildenafil free base, 1-[[3-(6,7-dihydro-1-methyl-7-oxo-3-propyl-1H-pyrazolo[4,3-d]pyrimidin-5-yl)-4-ethoxyphenyl]sulfonyl]-4-methylpiperazine]
water solubility (as said in US 20020002172A1): very low water solubility
